Experimental data from a melting point compilation (Tetko et al.; mined from patent text by program, amines drawn as free bases though some values may be those of a salt).

SMILES	melting point [°C]
O=C(NC(SC(=O)c1ccccc1)C(=O)N1CCCC1C(=O)O)c1ccccc1 (stereo not drawn)	202 to 205
C=CCc1ccc(C(NC(C)=O)C(=O)OC)cc1O (stereo not drawn)	143 to 145
COc1ccc2cc([C@H](C)C(=O)OCCC(C)(C)C)ccc2c1	92 to 94
CC(C)c1cc(-c2c3ccccc3c(Br)c3sc4ccccc4c23)cc(C(C)C)c1OCC(=O)O	220 to 221
O=C1COc2ccc(C3=C(c4ccc(Cl)cc4Cl)C(=O)OC3)cc2N1	233 to 234
CNC(=O)COc1nc(N)nc(-c2ccccc2)c1-c1ccc(=O)n(C(C)C)n1	204 to 206
CC(C)n1nc(-c2c(NCc3cccnc3)nc(N)nc2-c2ccccc2)ccc1=O	215 to 216
COc1ccc(C2(C#N)CCC(NS(C)(=O)=O)CC2)c2c1oc1ccccc12 (stereo not drawn)	176 to 178
CNC(=C[N+](=O)[O-])NCCCOc1cccc(CCN(C)C)c1	93 to 94
Cc1ccc(NCCCCOc2ccc3ccccc3c2)cc1	98
COCO[C@H]1C(=O)Nc2ccccc2S[C@H]1c1ccc(OC)cc1	125 to 126
O=CC(=Cc1ccc(Cl)cc1Cl)C1CCOCC1	82 to 85
CCN1CCC(=NO)c2ccn(CCCCN3CCC(C(=O)c4ccc(F)cc4)CC3)c2C1=O	158 to 160
CCC1(CC(=O)OC)OCC(O)c2c1[nH]c1ccccc21 (stereo not drawn)	86 to 90
CCCCCCCCCC(=O)Nc1ccc(S(=O)(=O)Nc2nnc(S(N)(=O)=O)s2)cc1	242 to 243
CCCCN(CCCC)c1ccc(C=CC2=C(C#N)C(=C(C#N)C#N)OC2(C)C)c(O[Si](c2ccccc2)(c2ccccc2)C(C)(C)C)c1	220 to 221
CC(C)(C)OC(=O)N1CCC(c2cn(-c3ccc(F)cc3)c3ccc(C#N)cc23)CC1	155
CCN(CC)C(=O)Oc1nc(-c2ccc(C)cc2)cc2ccccc12	98
CC(=O)c1c[nH]c2nccc(-c3ccccc3)c12	> 210
CCCCCCCCCCCCCCCCCCNC(=O)SCC(CO)OC (stereo not drawn)	62 to 63
CC(C#N)CC(=O)c1cccc(Cl)c1 (stereo not drawn)	72 to 75
OC(c1nn(-c2c(Cl)cc(C(F)(F)F)cc2Cl)cc1C1CC1(Br)Br)C(F)(F)F (stereo not drawn)	119 to 121
CC(=O)OC1CCC2(C)C(=CCC3C4=CCC(C(C)=O)C4(C)CCC32)C1 (stereo not drawn)	205 to 208
CCn1c(=Nc2ccccc2)sc2ncccc2c1=O	117 to 118
CCCc1cc(Cl)c2oc(-c3ccccc3)c(C)c2c1O	102 to 104

SMILES	melting point [°C]
CN(C)c1ccc(NC(=O)N(Cc2ccccc2)C[C@H]2CCC[C@H](CN(Cc3ccccc3)C(=O)Nc3ccc(N(C)C)cc3)C2)cc1 (relative stereo)	129 to 133
Cc1c(CCNC(=O)OC(C)(C)C)c2cc(S(=O)(=O)c3ccccc3)ccc2n1C	151 to 155
COc1cc(N2CCN(CCC3CN(C)C(=O)O3)CC2)cc(OC)c1OC (stereo not drawn)	86 to 88
CC(=O)SCCC(=O)N1[C@@H](c2ccccc2O)SC[C@H]1C(=O)N[C@@H](CCC(=O)O)C(=O)O	93 to 98
COc1ccc2c(O)c(C(C)C)cc(Br)c2c1	81.5 to 83.5
CC(C)c1nc(CC(=O)O)c(-c2ccco2)o1	108 to 109
CCOC(=O)c1cn(NCC=O)c2c(F)c(F)c(F)cc2c1=O	185
COc1cc(OC)cc(-c2cc(=O)c3ccc(OCCCBr)cc3o2)c1	173 to 174
CC(C)(C)C(=O)C(CC(=O)c1ccc(Cl)cc1)n1cncn1 (stereo not drawn)	116 to 119
CC1(C)Cc2cc(O)c3c(c2C(c2ccccc2)=N1)CC(C)(C)O3	208 to 210
Cc1ccc(-c2nc3ccc(O)cc3n2Cc2ccccc2C(F)(F)F)cc1C	178
Cc1cc(C)cc(CC(C)(C)NCC(O)c2cc(OCc3ccccc3)cc3c2OCC(=O)N3)c1 (stereo not drawn)	220 to 222
CCC(CC)N(C)c1cc(C(=O)OC)ccc1N1C(=O)CCC1(CO)CO	142 to 143
CC(C)C(=O)Oc1ccc2c(c1Cl)Sc1ccccc1N2	155
CCOCCNc1ncc(Cc2cc(OC)c(OC)c(OC)c2)c(N)n1	147
CC(C)c1ccc2nc3ccc(C(=O)O)cn3c(=O)c2c1	280 to 287
CN(C(=O)OC(C)(C)C)c1cc(OCc2ccccc2)ccc1N	86 to 89
CC1=CC(c2cccc(F)c2)C2=C(CCCC2=O)N1 (stereo not drawn)	216 to 218
N#Cc1ccc(CCCCC(=O)O)cc1	101 to 102
O=C(NC(=O)c1cccs1)NC1CCNC(Cc2ccc3ccccc3c2)C1 (stereo not drawn)	217 to 219
Fc1cccc2nc(S)oc12	232 to 234
CC1CCN(c2cc3nc(C(C)(C)C)sc3cc2NC(=S)Oc2ccccc2)CC1	201 to 205
CCc1oc2ccccc2c1C(=O)N(Cc1ccccc1)Cc1ccc2c(Br)c(OCC#N)ccc2c1	92 to 100
CCOP(=O)(/C=C/c1cn(-c2ccccc2)nc1OCc1ccc(OCc2nc(N3CCC(C(=O)O)CC3)sc2C)c(OC)c1)OCC	159 to 160
Cn1cccc1-c1nc(-c2cccnc2)no1	108 to 109

SMILES	melting point [°C]
O=C(O)c1cnn(-c2nc(-c3cccc(C(F)(F)F)c3)cs2)c1	229 to 230
O=C(O)CCCOc1ccc(CNC(=O)C2Cc3ccccc3N2S(=O)(=O)c2ccc(-c3cccc(C(F)(F)F)c3)cc2)cc1 (stereo not drawn)	78 to 80
CN1CN(C)c2nc3n(Cc4ccccc4)c(=O)cc(O)n3c2C1=O	176 to 182
CCCN(CCC)Sc1nc2ccccc2s1	57 to 59
CCNS(=O)(=O)c1cncc([N+](=O)[O-])c1	117 to 118
CCN(CCOc1cccc2ccccc12)c1ccc(C(=O)O)cc1	205 to 206
CC(=O)N(C(C)C(=O)NC(C)C(=O)OC(C)(C)C)C(CO)c1ccccc1 (stereo not drawn)	38 to 40
OC1CCSC(=S)N1Cc1ccco1 (stereo not drawn)	42 to 43
CCCCN1CCC(C(=O)O)(S(=O)(=O)c2ccc(OC)cc2)CC1	206
Oc1cc(-c2ncnc(C(F)F)c2Cl)c(F)cc1Cl	141 to 143
Cc1c(NC(=O)CC(C)(C)C)c(C)c2c(c1-c1ccc(F)nc1)OCC2c1ccc(C(C)C)cc1 (stereo not drawn)	135 to 137
CC(CN=C(c1ccccc1)c1ccccc1)N=C(c1ccccc1)c1ccccc1 (stereo not drawn)	89 to 90
Cn1cc(Br)c(=O)c(-c2ccccc2)c1	195 to 197
CC(C)Cc1oc(-c2ccc(F)cc2)nc1CC(=O)O	125 to 126
CCCCOc1ccc(Cc2cnc(N)nc2N)cc1OC	143 to 147
COc1ccc(-c2ccc3[nH]c(=O)ccc3c2)cc1	262 to 264
CC1=C(C)C(F)N(c2ccc(Cl)c(Cl)c2)C1=O (stereo not drawn)	102 to 103
Cc1ccccc1Sc1cccc(CO)c1O	75 to 77
O=c1[nH]c2cc([N+](=O)[O-])c(S(=O)(=O)c3cccc4cnccc34)cc2o1	> 270
CC(c1oc2ccccc2c(=O)c1-c1ccccc1)n1ncc2c(N)ncnc21 (stereo not drawn)	226 to 227
CCOP(=O)(OCC)c1cc2cc(S(N)(=O)=O)c(Cl)cc2[nH]c1=O	288 to 290
CNC1=NN(C(=O)C(C)(C)C)C(C)(C)S1	162 to 164
CC(C)(C)c1ccc(C2(O)CN(C(c3ccccc3)c3ccccc3)C2)cc1	168 to 169
CCOCCc1c(-c2ccccc2)nc(Cl)n2ncnc12	134 to 135
CC(C)C[C@H](NC(=O)CCS(=O)(=O)c1ccccc1)C(=O)N[C@@H](C(C)C)[C@@H](O)c1c(-c2ccccc2)c1=O	100 to 106

SMILES	melting point [°C]
COCc1ccc(S(=O)(=O)N2CCCC2c2ccc(F)cc2)cc1 (racemic)	115
COc1cc2ncnc(N3CCN(C(=S)Nc4ccccn4)CC3)c2cc1OC	208 to 210
COCC1(F)CCN(c2ccc(N3C[C@H](CNC(C)=O)OC3=O)cc2F)CC1	169 to 171
COc1ccc2c(c1)c(-c1cc3nccnc3[nH]1)cn2CC(=O)N1CCOCC1	263 to 267
C[C@@H]1C(=O)C[C@H]2C[C@@H]1OO[C@@]2(C)/C=C\c1ccc(Br)c2ccccc12	167
O=C(O)c1cccc(OCCNC(=O)C2Cc3ccccc3N2S(=O)(=O)c2ccc(-c3cccc(C(F)(F)F)c3)cc2)c1 (stereo not drawn)	85 to 92
Cc1ccc(-c2c(Cl)nc(-c3ccccc3)nc2Cl)cc1	165 to 166
CCCCCCCCC(O)C(O)CCCCCCCCCCCC(N)=O (stereo not drawn)	153 to 154
CCOC(=O)CC(CC(=O)OCC)N1CCC(Nc2ncc3ncnc(Nc4cccc(Br)c4)c3n2)CC1	132
CSc1cc2c(cc1C(F)(F)F)N(C(=O)Nc1cccc(C(=O)NCCN3CCCC3)c1)CC2	91 to 93
CCCCCCC(=O)c1ccc2c([N+](=O)[O-])c(O)c(O)cc2c1	97 to 98
COC(=O)c1ccc(CC(C)(C)NCC(O)c2ccccc2)cc1 (stereo not drawn)	125
CN(C)C1CCc2[nH]c3c(CO)cccc3c2C1 (stereo not drawn)	227 to 230
Cc1cc(N)n(-c2ccc(Cl)cc2C)n1	86 to 87
O=S(=O)(c1cc(-c2ccncc2)sc1-c1ccncc1)N1CCCC1	193 to 195
COc1cc(NS(C)(=O)=O)cc(OC)c1-c1ccc(C[C@H](NC(=O)c2c(Cl)cccc2Cl)C(=O)O)cc1	154 to 155
O=C1c2c(-c3ccccc3)c3ccccc3c(=O)n2CCN1Cc1cc(C(F)(F)F)cc(C(F)(F)F)c1	194 to 196
Nc1c(N=O)c(=O)n(CC2CCCCCC2)c(=O)n1CC1CCCCCC1	> 250
C/C(=C\c1ccc(C(=O)O)cc1)c1ccc2c(c1)SCCS2	236 to 237
O=C(CCl)c1ccc2c(C(=O)CCl)ccc3c2c1CC3	184 to 187
Clc1cc(NC23CC4CC(CC(C4)C2)C3)nc(NC23CC4CC(CC(C4)C2)C3)n1	232 to 236
COC(=O)c1cc(N(C)C)c(N(C)C)c(N(C)C)c1	61 to 63
Oc1ccc(C2N(c3ccccc3)CCN2c2ccccc2)c2cccnc12	190 to 196
